Assay results taken from the NIST ThermoML archive (doi:10.1021/je800188a).
Numbers after ± are expanded uncertainties.

Test: mean ionic activity coefficient (dimensionless); mn = molality of the nth substance listed, in mol/kg
Conditions: 298.15 K, 101 kPa, Liquid

Compound | mean ionic activity coefficient (m1 = 0.2) | mean ionic activity coefficient (m1 = 0.4) | mean ionic activity coefficient (m1 = 0.6) | mean ionic activity coefficient (m1 = 0.8) | mean ionic activity coefficient (m1 = 1) | mean ionic activity coefficient (m1 = 1.2) | mean ionic activity coefficient (m1 = 1.4) | mean ionic activity coefficient (m1 = 1.6) | mean ionic activity coefficient (m1 = 1.8) | mean ionic activity coefficient (m1 = 2) | mean ionic activity coefficient (m1 = 2.2) | mean ionic activity coefficient (m1 = 2.4) | mean ionic activity coefficient (m1 = 2.6) | mean ionic activity coefficient (m1 = 2.8) | mean ionic activity coefficient (m1 = 3) | mean ionic activity coefficient (m1 = 3.2) | mean ionic activity coefficient (m1 = 3.4) | mean ionic activity coefficient (m1 = 3.6) | mean ionic activity coefficient (m1 = 3.8) | mean ionic activity coefficient (m1 = 4) | other results
[Cl-].[K+] [potassium chloride] + O | 0.719 ± 0.05 | 0.669 ± 0.05 | 0.641 ± 0.05 | 0.623 ± 0.05 | 0.61 ± 0.05 | 0.601 ± 0.05 | 0.593 ± 0.05 | 0.588 ± 0.05 | 0.584 ± 0.05 | 0.58 ± 0.05 | 0.578 ± 0.05 | 0.576 ± 0.05 | 0.575 ± 0.05 | 0.575 ± 0.05 | 0.575 ± 0.05 | 0.576 ± 0.05 | 0.576 ± 0.05 | 0.578 ± 0.05 | 0.58 ± 0.05 | 0.582 ± 0.05 | mean ionic activity coefficient (m1 = 4.2): 0.584 ± 0.05; mean ionic activity coefficient (m1 = 4.4): 0.587 ± 0.05; mean ionic activity coefficient (m1 = 4.6): 0.59 ± 0.05; mean ionic activity coefficient (m1 = 4.8): 0.593 ± 0.05; mean ionic activity coefficient (m1 = 4.803): 0.593 ± 0.05
[Cl-].[Na+] [sodium chloride] + O | 0.734 ± 0.05 | 0.694 ± 0.05 | 0.676 ± 0.05 | 0.666 ± 0.05 | 0.662 ± 0.05 | 0.66 ± 0.05 | 0.662 ± 0.05 | 0.665 ± 0.05 | 0.669 ± 0.05 | 0.675 ± 0.05 | 0.682 ± 0.05 | 0.69 ± 0.05 | 0.699 ± 0.05 | 0.709 ± 0.05 | 0.72 ± 0.05 | 0.732 ± 0.05 | 0.744 ± 0.05 | 0.758 ± 0.05 | 0.772 ± 0.05 | 0.787 ± 0.05 | mean ionic activity coefficient (m1 = 4.2): 0.803 ± 0.05; mean ionic activity coefficient (m1 = 4.4): 0.82 ± 0.05; mean ionic activity coefficient (m1 = 4.6): 0.838 ± 0.05; mean ionic activity coefficient (m1 = 4.8): 0.857 ± 0.05; mean ionic activity coefficient (m1 = 5): 0.877 ± 0.05; mean ionic activity coefficient (m1 = 5.2): 0.898 ± 0.05; mean ionic activity coefficient (m1 = 5.4): 0.92 ± 0.05; mean ionic activity coefficient (m1 = 5.6): 0.943 ± 0.05; mean ionic activity coefficient (m1 = 5.8): 0.968 ± 0.05; mean ionic activity coefficient (m1 = 6): 0.993 ± 0.05; mean ionic activity coefficient (m1 = 6.144): 1.01 ± 0.051
